The test system of experiment [1] is T-47D. Nature of the experiment: Caspase cascade activation assay (N-(Ac-DEVD)-N'-ethoxycarbonyl-R110 fluorogenic substrate) in T-47D cells. The settings on record: T-47D human breast cancer cells, 24 h incubation; ratio of net RFU of compound to control. The format is cell-based. On the procedure:
(§1) Human breast cancer cell lines T-47D and ZR-75-1 were grown according to media component mixtures designated by American Type Culture Collection +10% FCS (Invitrogen Corporation), in a 5% CO2−95% humidity incubator at 37° C. T-47D and ZR-75-1 cells were maintained at a cell density between 30 and 80% confluency at a cell density of 0.1 to 0.6×10^6 cells/mL. Cells were harvested at 600×g and resuspended at 0.65×10^6 cells/mL into appropriate media +10% FCS. An aliquot of 45 μL of cells was added to a well of a 96-well microtiter plate containing 5 μL of a 10% DMSO in RPMI-1640 media solution containing 0.16 to 10 μM of 4-(3-bromo-4,5-dimethoxyphenyl)-3-cyano-4H-indolo[4,5-b]pyran (Example 1) or other test compound (0.016 to 1 μM final). An aliquot of 45 μL of cells was added to a well of a 96-well microtiter plate containing 5 μL of a 10% DMSO in RPMI-1640 media solution without test compound as the control sample. The samples were mixed by agitation and then incubated at 37° C. for 24 h in a 5% CO2-95% humidity incubator. After incubation, the samples were removed from the incubator and 50 μL of a solution containing 20 μM of N-(Ac-DEVD)-N′-ethoxycarbonyl-R110 (SEQ ID No.:1) fluorogenic substrate (Cytovia, Inc.; U.S. Pat. No. 6,335,429), 20% sucrose (Sigma), 20 mM DTT (Sigma), 200 mM NaCl (Sigma), 40 mM Na PIPES buffer pH 7.2 (Sigma), and 500 μg/mL lysolecithin (Calbiochem) was added. The samples were mixed by agitation and incubated at room temperature. Using a fluorescent plate reader (Model 1420 Wallac Instruments), an initial reading (T=0) was made approximately 1-2 min after addition of the substrate solution, employing excitation at 485 nm and emission at 530 nm, to determine the background fluorescence of the control sample. After the 3 h incubation, the samples were read for fluorescence as above (T=3 h).
(§2) The Relative Fluorescence Unit values (RFU) were used to calculate the sample readings as follows: RFU(T=3h)−Control RFU(T=0)=Net RFU(T=3h)
(§3) The activity of caspase cascade activation was determined by the ratio of the net RFU value for 4-(3-bromo-4,5-dimethoxyphenyl)-3-cyano-4H-indolo[4,5-b]pyran or other test compound to that of control samples. The EC50 (nM) was determined by a sigmoidal dose-response calculation (Prism 2.0, GraphPad Software Inc.).

Experiment [2] has as its system ZR-75-1. The experiment is described as follows: Caspase cascade activation assay (N-(Ac-DEVD)-N'-ethoxycarbonyl-R110 fluorogenic substrate) in ZR-75-1 cells. The format is cell-based. Conditions: ZR-75-1 human breast cancer cells, 24 h incubation; sigmoidal dose-response; read-out: ZR-75-1 EC50 (nM) (potency). Here is the method:
as §1, §2, §3

SMILES strings stand for the structures.

In the case of `COc1cc(C2CC(OC(C)=O)Oc3cc(N(C)C)ccc32)cc(Br)c1OC` (stereo not drawn) [Example 17, 2-Acetoxy-4-(3-bromo-4,5-dimethoxyphenyl)-7-dimethylamino-chroman], in experiment [1], the “T-47D Ratio (caspase activity)” value is given as 5.2. In experiment [2], the EC50 (as a rule, the concentration needed to bring the measured effect to its halfway point) worked out at 29 nM.

As for `COc1ccc2c(c1)OC(=O)CC2c1cc(OC)c(OC)c(OC)c1` (stereo not drawn) [Example 31, 7-Methoxy-4-(3,4,5-trimethoxyphenyl)-chroman-2-one], the “T-47D Ratio (caspase activity)” value in experiment [1] worked out at 1.3. Also, the EC50 in experiment [2] is 573 nM. For `COc1cc(C2CC(O)Oc3c2ccc2[nH]ccc32)cc(Br)c1OC` (stereo not drawn) [Example 24, 4-(3-Bromo-4,5-dimethoxyphenyl)-2-hydroxy-pyrrolo[2,3-h]chroman], in experiment [1], the “T-47D Ratio (caspase activity)” value is listed as 2.5. Moreover, the EC50 in experiment [2] turned out to be 55 nM. `OC1CC(c2cc(Cl)cc(Cl)c2)c2ccc3cnccc3c2O1` (stereo not drawn): the EC50 in experiment [2] is more than 1000 nM. Turning to `COc1cc(C2CC(O)Oc3cc(N(C)C)ccc32)cc(Br)c1OC` (stereo not drawn) [Example 15, 4-(3-Bromo-4,5-dimethoxyphenyl)-7-dimethylamino-2-hydroxy-chroman], the “T-47D Ratio (caspase activity)” value in experiment [1] is listed as 14.6. Also, the EC50 in experiment [2] was 15 nM. As to `COc1cc(C2=CCOc3cc(N(C)C)ccc32)cc(OC)c1OC` [Example 9, 7-Dimethylamino-4-(3,4,5-trimethoxyphenyl)-2H-chromene], the “T-47D Ratio (caspase activity)” value in experiment [1] stood at 7.8. Also, the EC50 in experiment [2] was found to be 177 nM. Consider `Cn1ccc2c3c(ccc21)C(c1cncc(Br)c1)C(C#N)=CO3` (stereo not drawn) [Example 3, 4-(5-Bromo-pyridin-3-yl)-3-cyano-7-methyl-4H-indolo[4,5-b]pyran], for which the “T-47D Ratio (caspase activity)” value in experiment [1] was determined as 5.1. Moreover, the half-maximal effective concentration (EC50) in experiment [2] turned out to be 3 nM. In the same order, the values of `COc1ccc2c(c1)OC=C(C#N)C2c1cc(OC)c(OC)c(OC)c1` (stereo not drawn) [Example 8, 3-Cyano-7-methoxy-4-(3,4,5-trimethoxyphenyl)-4H-chromene] are 6.7 and 210 nM. For the compound `COc1cc(C2CCOc3c2ccc2c3ccn2C)cc(Br)c1OC` (stereo not drawn) [Example 22, 4-(3-Bromo-4,5-dimethoxyphenyl)-7-methyl-pyrrolo[2,3-h]chroman], in experiment [1], the “T-47D Ratio (caspase activity)” value came to 6.5. In experiment [2], the EC50 was found to be 48 nM.

As to `COc1cc(C2C(C#N)=COc3cc(N(C)C)ccc32)cc(Br)c1OC` (stereo not drawn) [Example 2, 4-(3-Bromo-4,5-dimethoxyphenyl)-3-cyano-7-dimethylamino-4H-chromene], the “T-47D Ratio (caspase activity)” value in experiment [1] was 5.5. Further, in experiment [2], the EC50 was determined as 30 nM. Take `COc1ccc(C2CC(=O)Oc3cc(OC)c(OC)c(OC)c32)cc1` (stereo not drawn): in experiment [2], the EC50 is more than 10000 nM. As for `COc1cc(C2CC(O)Oc3c2ccc2cc[nH]c32)cc(Br)c1OC` (stereo not drawn) [Example 30, 4-(3-Bromo-4,5-dimethoxyphenyl)-2-hydroxy-pyrrolo[3,2-h]chroman], in experiment [1], the “T-47D Ratio (caspase activity)” value turned out to be 6.8. In addition, the EC50 in experiment [2] turned out to be 379 nM. For `COc1cc(C2CC(O)Oc3c2ccc2cnccc32)cc(Br)c1OC` (stereo not drawn) [Example 26, 4-(3-Bromo-4,5-dimethoxyphenyl)-2-hydroxy-pyrido[3,4-h]chroman], in experiment [1], the “T-47D Ratio (caspase activity)” value is 1.1. The EC50 in experiment [2] is more than 1000 nM.

Take `COc1ccc2c(c1)OC(=O)C(C#N)C2c1cc(OC)c(OC)c(OC)c1` (stereo not drawn) [Example 13, 3-Cyano-7-methoxy-2-oxo-4-(3,4,5-trimethoxyphenyl)-chroman]: the “T-47D Ratio (caspase activity)” value in experiment [1] was found to be 4.3. Moreover, the EC50 in experiment [2] worked out at 67 nM. For the compound `COc1cccc(C2=C(Br)C(C)(C)Oc3cc(OC)ccc32)c1`, the EC50 in experiment [2] is more than 10000 nM. On to `COc1cc(C2=C(Cl)COc3cc(N(C)C)ccc32)cc(OC)c1OC` [Example 10, 3-Chloro-7-dimethylamino-4-(3,4,5-trimethoxyphenyl)-2H-chromene], for which, in experiment [1], the “T-47D Ratio (caspase activity)” value is on record as 8.2. The EC50 in experiment [2] stood at 280 nM. Take `COc1ccc2c(c1)OC(OCCN)CC2c1cc(OC)c(OC)c(OC)c1` (stereo not drawn): the EC50 in experiment [2] was more than 1000 nM. As to `COc1cc(C2CC(OC(C)=O)Oc3c2ccc2c3ccn2C)cc(Br)c1OC` (stereo not drawn) [Example 20, 2-Acetoxy-4-(3-bromo-4,5-dimethoxyphenyl)-7-methyl-pyrrolo[2,3-h]chroman], the “T-47D Ratio (caspase activity)” value in experiment [1] is reported as 4.7. In addition, the concentration giving a half-maximal response (EC50) in experiment [2] is 3 nM.

As to `COc1cc(C2c3ccc4[nH]ccc4c3OC(=O)C2C#N)cc(Br)c1OC` (stereo not drawn) [Example 14, 4-(3-Bromo-4,5-dimethoxyphenyl)-3-cyano-2-oxo-pyrrolo[2,3-h]chroman], the “T-47D Ratio (caspase activity)” value in experiment [1] is reported as 4.8. In addition, the EC50 in experiment [2] amounted to 278 nM.

On to `COc1ccc(C2CC(=O)Oc3c2cc(OC)c(OC)c3OC)cc1` (stereo not drawn), for which the “T-47D Ratio (caspase activity)” value in experiment [1] came out at 5.7. For the same compound, the EC50 in experiment [2] was 2650 nM.

Consider `COc1ccc(C2CC(=O)Oc3cc(OC)c(OC)c(OC)c32)cc1OC` (stereo not drawn), for which the EC50 in experiment [2] was more than 1000 nM. `COc1cc(C2CC(O)Oc3c2ccc2cccnc32)cc(Br)c1OC` (stereo not drawn) [Example 28, 4-(3-Bromo-4,5-dimethoxyphenyl)-2-hydroxy-pyrido[3,2-h]chroman]: the “T-47D Ratio (caspase activity)” value in experiment [1] was 6.5. In experiment [2], the EC50 is 344 nM. Consider `COc1cc(C2CC(=O)Oc3c2ccc2c3ccn2C)cc(Br)c1OC` (stereo not drawn) [Example 21, 4-(3-Bromo-4,5-dimethoxyphenyl)-7-methyl-pyrrolo[2,3-h]chroman-2-one], for which the “T-47D Ratio (caspase activity)” value in experiment [1] is listed as 6.2. Further, in experiment [2], the EC50 turned out to be 127 nM. Turning to `COc1ccc2c(c1)OC(O)CC2c1cc(OC)c(OC)c(OC)c1` (stereo not drawn) [Example 23, 7-Methoxy-2-hydroxy-4-(3,4,5-trimethoxyphenyl)-chroman], the “T-47D Ratio (caspase activity)” value in experiment [1] turned out to be 6.0. Also, the EC50 in experiment [2] worked out at 23 nM. As to `CC(=O)Nc1ccc2c(c1)OC(O)CC2c1cc(Cl)cc(Cl)c1` (stereo not drawn), in experiment [2], the EC50 is more than 10000 nM. As for `COc1cc(C2CC(O)Oc3c2ccc2[nH]c(=O)[nH]c32)cc(Br)c1OC` (stereo not drawn) [Example 29, 4-(3-Bromo-4,5-dimethoxyphenyl)-7,9-dihydro-2-hydroxy-8-oxo-imidazolo[4,5-h]chroman], the “T-47D Ratio (caspase activity)” value in experiment [1] turned out to be 6.0. Further, the EC50 in experiment [2] is 360 nM. Turning to `COc1cc(C2CC(O)Oc3c2ccc2c3ccn2C)cc(Br)c1OC` (stereo not drawn) [Example 18, 4-(3-Bromo-4,5-dimethoxyphenyl)-2-hydroxy-7-methyl-pyrrolo[2,3-h]chroman], the “T-47D Ratio (caspase activity)” value in experiment [1] came out at 6.0. Also, the EC50 in experiment [2] was 7.8 nM. In the case of `COc1ccc(C2CC(=O)Oc3c2cc(OC)c(OC)c3OC)cc1O` (stereo not drawn) [Example 32, 4-(3-Hydroxy-4-methoxyphenyl)-6,7,8-trimethoxy-chroman-2-one], the “T-47D Ratio (caspase activity)” value in experiment [1] was determined as 4.4. Moreover, in experiment [2], the EC50 was determined as 3080 nM. Take `COc1ccc2c(c1)OCC(C#N)C2c1cc(OC)c(OC)c(OC)c1` (stereo not drawn) [Example 11, 3-Cyano-7-methoxy-4-(3,4,5-trimethoxyphenyl)-chroman]: in experiment [1], the “T-47D Ratio (caspase activity)” value worked out at 9.6. In experiment [2], the EC50 was 101 nM. `COc1cc(C2CC(OC)Oc3cc(N)ccc32)cc(Br)c1OC` (stereo not drawn): the EC50 in experiment [2] was more than 1000 nM. In the case of `COc1cc(C2CCOc3cc(N(C)C)ccc32)cc(Br)c1OC` (stereo not drawn), the EC50 in experiment [2] is more than 10000 nM.

`COc1ccc(C2c3ccc(N(C)C)cc3OC(OCCCN)C2Br)cc1OC` (stereo not drawn): the EC50 in experiment [2] was more than 10000 nM. `COc1cccc(C2=CC(C)(C)Oc3cc(OC)ccc32)c1`: the EC50 in experiment [2] was more than 10000 nM. Turning to `OC1CC(c2cc(Cl)cc(Cl)c2)c2ccc3[nH]ccc3c2O1` (stereo not drawn), the EC50 in experiment [2] is more than 1000 nM.

The record behind these values is patent US7476741B2, “Substituted 4H-chromens, 2H-chromenes, chromans and analogs as activators of caspases and inducers of apoptosis and the use thereof” (Cytovia, Inc., priority 2002, dated 2009).
